The record followed here is ChEMBL document CHEMBL3991601, “The target landscape of clinical kinase drugs” (Science, 2017).

Active and inactive are the calls of the source. Rule as the data show it, for most assays here: actives have a measured Kd and inactives only a lower limit.

In assay [1] the target is T1, ATP-dependent RNA helicase DDX1 (Homo sapiens, UniProt Q92499).
T1 sequence (Q92499 whole entry): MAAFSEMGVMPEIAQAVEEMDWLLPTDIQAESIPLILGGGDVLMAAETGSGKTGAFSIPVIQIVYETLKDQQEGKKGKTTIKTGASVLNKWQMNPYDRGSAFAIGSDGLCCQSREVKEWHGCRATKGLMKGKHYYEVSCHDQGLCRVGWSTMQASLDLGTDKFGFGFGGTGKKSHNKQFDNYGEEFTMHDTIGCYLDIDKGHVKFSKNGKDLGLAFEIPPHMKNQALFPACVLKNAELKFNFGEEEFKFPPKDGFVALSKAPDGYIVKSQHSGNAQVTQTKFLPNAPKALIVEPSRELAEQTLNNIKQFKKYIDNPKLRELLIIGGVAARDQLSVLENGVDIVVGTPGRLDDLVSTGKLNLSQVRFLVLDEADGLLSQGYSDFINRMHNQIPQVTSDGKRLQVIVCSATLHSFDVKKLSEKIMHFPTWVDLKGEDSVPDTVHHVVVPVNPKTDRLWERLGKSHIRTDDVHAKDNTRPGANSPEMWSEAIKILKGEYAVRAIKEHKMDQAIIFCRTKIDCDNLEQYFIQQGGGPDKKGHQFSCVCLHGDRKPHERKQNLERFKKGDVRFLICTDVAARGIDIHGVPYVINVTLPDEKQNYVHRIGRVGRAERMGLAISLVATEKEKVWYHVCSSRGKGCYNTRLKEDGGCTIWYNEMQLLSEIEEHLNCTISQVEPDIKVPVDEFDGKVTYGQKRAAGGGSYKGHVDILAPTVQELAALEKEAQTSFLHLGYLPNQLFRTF

Assay [2] has as its target T2, EKC/KEOPS complex subunit TP53RK (Homo sapiens, UniProt Q96S44).
T2 sequence (Q96S44 whole entry): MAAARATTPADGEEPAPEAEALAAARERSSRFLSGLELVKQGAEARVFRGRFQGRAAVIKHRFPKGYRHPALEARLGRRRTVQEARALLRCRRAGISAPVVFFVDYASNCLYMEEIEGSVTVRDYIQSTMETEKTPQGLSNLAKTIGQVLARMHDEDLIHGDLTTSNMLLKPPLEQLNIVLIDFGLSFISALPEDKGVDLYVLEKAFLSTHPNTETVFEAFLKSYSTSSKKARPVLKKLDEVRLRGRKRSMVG

The target of assay [3] is Serine/threonine-protein kinase PAK 4 (Homo sapiens, UniProt O96013).
Chain of Serine/threonine-protein kinase PAK 4 (O96013 whole entry): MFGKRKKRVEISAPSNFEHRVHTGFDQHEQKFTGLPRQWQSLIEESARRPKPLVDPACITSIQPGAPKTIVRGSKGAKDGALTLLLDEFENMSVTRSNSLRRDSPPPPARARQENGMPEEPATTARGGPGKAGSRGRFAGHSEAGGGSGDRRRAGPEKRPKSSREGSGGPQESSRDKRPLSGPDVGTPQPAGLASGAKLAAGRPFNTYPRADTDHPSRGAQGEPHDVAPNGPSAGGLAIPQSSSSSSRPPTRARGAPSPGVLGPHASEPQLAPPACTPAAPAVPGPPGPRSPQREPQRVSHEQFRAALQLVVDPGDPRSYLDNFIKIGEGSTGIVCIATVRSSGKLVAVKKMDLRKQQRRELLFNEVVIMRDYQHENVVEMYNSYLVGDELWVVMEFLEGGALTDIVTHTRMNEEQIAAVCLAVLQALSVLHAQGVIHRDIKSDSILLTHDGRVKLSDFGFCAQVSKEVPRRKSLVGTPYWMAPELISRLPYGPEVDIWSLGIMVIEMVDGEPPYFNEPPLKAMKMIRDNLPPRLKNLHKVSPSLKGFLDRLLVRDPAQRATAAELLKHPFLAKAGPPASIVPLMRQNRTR
Assay [4] has as its target T3, General transcription and DNA repair factor IIH helicase subunit XPD (Homo sapiens, UniProt P18074).
T3 sequence (P18074 whole entry): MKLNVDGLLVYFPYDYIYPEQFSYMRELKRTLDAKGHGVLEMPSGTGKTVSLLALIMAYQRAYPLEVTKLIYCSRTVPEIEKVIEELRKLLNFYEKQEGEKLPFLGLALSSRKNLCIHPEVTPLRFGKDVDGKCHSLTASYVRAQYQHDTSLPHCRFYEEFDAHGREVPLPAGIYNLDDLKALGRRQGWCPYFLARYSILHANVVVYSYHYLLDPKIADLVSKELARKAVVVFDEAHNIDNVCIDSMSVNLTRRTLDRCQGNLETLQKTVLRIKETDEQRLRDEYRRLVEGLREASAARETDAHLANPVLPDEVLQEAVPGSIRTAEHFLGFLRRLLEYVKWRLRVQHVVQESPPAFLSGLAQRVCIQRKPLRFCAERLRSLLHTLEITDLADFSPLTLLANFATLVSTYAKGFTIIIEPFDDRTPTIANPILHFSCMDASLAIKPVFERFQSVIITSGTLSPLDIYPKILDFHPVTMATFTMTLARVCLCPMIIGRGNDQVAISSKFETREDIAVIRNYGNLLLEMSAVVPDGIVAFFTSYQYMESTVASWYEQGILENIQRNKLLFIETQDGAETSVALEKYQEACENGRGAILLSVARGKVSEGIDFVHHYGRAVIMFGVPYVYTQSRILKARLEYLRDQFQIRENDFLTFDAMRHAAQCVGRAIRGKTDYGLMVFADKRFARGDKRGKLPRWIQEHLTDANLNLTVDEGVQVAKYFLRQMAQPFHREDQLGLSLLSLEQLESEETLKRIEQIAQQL
The note with it: read-out: Kd apparent; k-562, colo 205, sk-n-be(2) and mv-4-11.

The target of assay [5] is T4, Serine/threonine-protein kinase LATS1 (Homo sapiens, UniProt O95835).
T4 sequence (O95835 whole entry): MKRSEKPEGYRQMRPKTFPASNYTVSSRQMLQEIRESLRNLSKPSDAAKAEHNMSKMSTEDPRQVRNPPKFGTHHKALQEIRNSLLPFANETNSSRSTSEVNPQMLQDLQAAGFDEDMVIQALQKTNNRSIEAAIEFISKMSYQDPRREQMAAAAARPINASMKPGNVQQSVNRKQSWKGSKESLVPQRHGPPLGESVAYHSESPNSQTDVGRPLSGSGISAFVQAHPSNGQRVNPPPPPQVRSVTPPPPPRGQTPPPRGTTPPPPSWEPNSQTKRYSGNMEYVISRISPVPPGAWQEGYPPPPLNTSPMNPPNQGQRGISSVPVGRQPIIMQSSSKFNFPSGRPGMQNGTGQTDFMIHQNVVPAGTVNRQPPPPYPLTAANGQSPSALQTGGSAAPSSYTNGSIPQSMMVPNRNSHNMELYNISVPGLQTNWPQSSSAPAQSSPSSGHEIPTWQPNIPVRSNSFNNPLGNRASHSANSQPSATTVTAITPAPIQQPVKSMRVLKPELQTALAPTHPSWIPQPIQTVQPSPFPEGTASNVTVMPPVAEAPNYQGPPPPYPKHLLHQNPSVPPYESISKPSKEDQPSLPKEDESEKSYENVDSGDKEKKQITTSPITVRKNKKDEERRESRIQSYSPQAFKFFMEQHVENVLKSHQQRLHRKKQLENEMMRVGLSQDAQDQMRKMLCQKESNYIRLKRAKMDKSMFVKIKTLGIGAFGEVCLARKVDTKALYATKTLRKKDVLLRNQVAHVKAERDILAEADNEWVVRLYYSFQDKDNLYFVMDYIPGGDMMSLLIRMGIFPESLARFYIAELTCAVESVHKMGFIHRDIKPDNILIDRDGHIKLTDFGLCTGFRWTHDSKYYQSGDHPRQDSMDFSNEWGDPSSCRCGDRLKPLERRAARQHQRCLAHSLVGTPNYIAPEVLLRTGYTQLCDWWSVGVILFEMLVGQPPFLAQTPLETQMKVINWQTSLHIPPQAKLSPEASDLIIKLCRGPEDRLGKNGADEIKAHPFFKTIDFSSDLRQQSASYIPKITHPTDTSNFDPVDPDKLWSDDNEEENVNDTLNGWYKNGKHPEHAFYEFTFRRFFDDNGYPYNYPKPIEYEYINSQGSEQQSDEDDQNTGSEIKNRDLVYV

Assay [6] addresses Ribosomal protein S6 kinase alpha-3 (Homo sapiens, UniProt P51812).
Also: in the data inactive means no Kd found up to 30 µM.

Chain of Ribosomal protein S6 kinase alpha-3 (P51812 whole entry): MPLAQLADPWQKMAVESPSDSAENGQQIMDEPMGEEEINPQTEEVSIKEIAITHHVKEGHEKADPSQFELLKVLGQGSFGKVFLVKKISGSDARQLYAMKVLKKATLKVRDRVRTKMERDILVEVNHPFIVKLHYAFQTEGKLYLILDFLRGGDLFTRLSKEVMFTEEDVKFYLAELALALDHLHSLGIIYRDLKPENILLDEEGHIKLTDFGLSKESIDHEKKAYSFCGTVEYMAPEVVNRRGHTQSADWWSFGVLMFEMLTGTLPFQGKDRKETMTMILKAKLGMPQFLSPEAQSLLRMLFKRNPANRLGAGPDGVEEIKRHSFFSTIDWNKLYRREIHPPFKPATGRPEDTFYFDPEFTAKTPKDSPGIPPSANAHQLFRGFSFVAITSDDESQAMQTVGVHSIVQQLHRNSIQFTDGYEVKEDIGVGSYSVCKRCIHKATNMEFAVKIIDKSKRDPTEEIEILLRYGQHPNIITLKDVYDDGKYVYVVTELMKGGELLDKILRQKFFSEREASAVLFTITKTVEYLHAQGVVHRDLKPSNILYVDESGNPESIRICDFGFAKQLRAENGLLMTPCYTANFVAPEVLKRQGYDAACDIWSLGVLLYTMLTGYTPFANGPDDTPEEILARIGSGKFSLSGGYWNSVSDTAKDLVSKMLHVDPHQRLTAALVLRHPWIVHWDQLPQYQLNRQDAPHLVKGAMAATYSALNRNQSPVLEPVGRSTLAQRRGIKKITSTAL

For the compound `S=C(NCc1ccc2c(c1)OCO2)N1CCN(c2ncnc3c2oc2ccccc23)CC1` [AMUVATINIB], the Kd in assay [1], in assay [2], in assay [3], in assay [4], in assay [5] and in assay [6] was > 30 µM (inactive) in each case.

Take `O[C@H]1CC[C@H](Nc2ncc3nc(Nc4c(F)cc(F)cc4F)n([C@H]4CCOC4)c3n2)CC1` [TANZISERTIB]: the Kd in assay [1], in assay [2], in assay [3], in assay [4], in assay [5] and in assay [6] was > 30 µM (inactive) in each case.

Take `COc1cccc2cc(-c3nc([C@H]4CC[C@H](C(=O)O)CC4)n4ncnc(N)c34)[nH]c12` [OSI-027]: the Kd in assay [1], in assay [2], in assay [3], in assay [4], in assay [5] and in assay [6] was > 30 µM (inactive) each time.

Consider `O=c1[nH]c([C@@H]2CCCN2)nc2c1oc1ccc(Cl)cc12`, for which the Kd in assay [2], in assay [3], in assay [4], in assay [5] and in assay [6] was > 30 µM (inactive) each time.

For `O=C(O)c1ccc2c(c1)nc(Nc1cccc(Cl)c1)c1ccncc12` [SILMITASERTIB], the Kd in assay [3], in assay [4], in assay [5] and in assay [6] was > 30 µM (inactive) throughout.

With `c1cc(OCCN2CCCCC2)cc(-c2n[nH]c3ccc(-c4nc[nH]n4)cc23)c1` [CC-401], the Kd in assay [1], in assay [2], in assay [3], in assay [4], in assay [5] and in assay [6] was > 30 µM (inactive) in each case.

`COc1cc2ncnc(Nc3ccc(O)cc3)c2cc1OC` [WHI-P131]: the Kd in assay [1], in assay [2], in assay [3], in assay [4], in assay [5] and in assay [6] was > 30 µM (inactive) in each case.

As to `O=C(Nc1ccc(OC(F)(F)F)cc1)c1sccc1NCc1ccnc2ccccc12` [OSI-930], the Kd in assay [1], in assay [2], in assay [3], in assay [4], in assay [5] and in assay [6] was > 30 µM (inactive) each time.

As to `CNC(=O)c1ccc(Nc2ncc(C(F)(F)F)c(NCc3nccnc3N(C)S(C)(=O)=O)n2)cc1` [DEFACTINIB], the Kd is > 30 µM (inactive) in assay [1]; > 30 µM (inactive) in assay [2]; 22 µM (active) in assay [3]; 2.26 µM (active) in assay [4]; 9.05 µM (active) in assay [5]; > 30 µM (inactive) in assay [6].

Regarding `CC[C@@](C)(Nc1ccnc(-c2c[nH]c3ncccc23)n1)C(=O)NCC(F)(F)F` [DECERNOTINIB], the Kd in assay [1] was > 30 µM (inactive); in assay [2], 2.83 µM (active); in assay [3], > 30 µM (inactive); in assay [4] it was > 30 µM (inactive); in assay [5], > 30 µM (inactive); in assay [6] it was > 30 µM (inactive).

Consider `O=S(=O)(c1cccc2c(O)nccc12)N1CCCNCC1` [HYDROXYFASUDIL], for which the Kd in assay [1], in assay [2], in assay [3], in assay [4], in assay [5] and in assay [6] was > 30 µM (inactive) each time.

`CN1CCN(c2nc(C3=C(c4c[nH]c5ccccc45)C(=O)NC3=O)c3ccccc3n2)CC1` [SOTRASTAURIN]: the Kd in assay [1], in assay [2], in assay [3], in assay [4], in assay [5] and in assay [6] was > 30 µM (inactive) in each case.

With `C=CCN(/C=C1/C(=O)O[C@H](COC)[C@@]2(C)C1=C(O)C(=O)C1=C2[C@H](OC(C)=O)C[C@]2(C)C(=O)CC[C@@H]12)CC=C` [SONOLISIB], the Kd in assay [2], in assay [3], in assay [4], in assay [5] and in assay [6] was > 30 µM (inactive) each time.

Take `CCc1nc(C(N)=O)c(Nc2ccc(N3CCC(N4CCN(C)CC4)CC3)c(OC)c2)nc1NC1CCOCC1` [GILTERITINIB]: the Kd in assay [2] is 2.72 µM (active); in assay [3], > 30 µM (inactive); in assay [4], > 30 µM (inactive); in assay [5], 0.221 µM (active); in assay [6] it was 2.66 µM (active).

With `CCOc1ccn(-c2ccc(F)cc2)c(=O)c1C(=O)Nc1ccc(Oc2ccnc(N)c2Cl)c(F)c1` [BMS-777607], the Kd in assay [1], in assay [2], in assay [3], in assay [5] and in assay [6] was > 30 µM (inactive) each time.
